Laboratory results taken from patent EP0067612A1, “Penicillin derivatives” (BEECHAM GROUP PLC, priority 1981, dated 1982).
Structures can show the parent of a compound that is named as a salt.

Assays:
Assay in all cases: Antibacterial activity, MIC (agar)
Format in all cases: cell-based
E. coli JT 4 = conditions: Escherichia coli, JT4
From the text: (§1) The antibacterial activities of compounds of the present invention (MIC µg/ml)

P. mirabilis C 977 = conditions: Proteus mirabilis, C977
From the text: as §1

E. coli JT 425 = conditions: Escherichia coli, JT425
From the text: as §1

E. coli NCTC 10418 = conditions: Escherichia coli, NCTC10418
From the text: as §1

K. aerogenes A = conditions: Klebsiella aerogenes
From the text: as §1

Ps. aeruginosa Dalgleish = conditions: Pseudomonas aeruginosa, Ps. aeruginosa Dalgleish 10^-2
From the text: as §1

E. coli ESS = conditions: Escherichia coli
From the text: as §1

P. rettgeri = conditions: Providencia rettgeri
From the text: as §1

S. faecalis I = conditions: Enterococcus faecalis
From the text: as §1

P. mirabilis 889 = conditions: Proteus mirabilis
From the text: as §1

[1] = system: Ps. aeruginosa NCTC 10662; conditions: Pseudomonas aeruginosa
From the text: as §1

N. catarrhalis 1502 = system: N. catarrhalis 1502
From the text: as §1

S. pyogenes CN 10 = conditions: Streptococcus pyogenes, CN10
From the text: as §1

S. marcescens US 32 = conditions: Serratia marcescens, US32
From the text: as §1

S. aureus Russell = conditions: Staphylococcus aureus
From the text: as §1

E. cloacae N1 = conditions: Enterobacter cloacae
From the text: as §1

S. aureus Oxford = conditions: Staphylococcus aureus
From the text: as §1

[2] = NCTC10662, Ps. aeruginosa NCTC 10662
[3] = NCTC10662, Ps. aeruginosa NCTC 10662 10^-2

SMILES	MIC (E. coli JT 4) [µg/mL]	MIC (P. mirabilis C 977) [µg/mL]	MIC (E. coli JT 425) [µg/mL]	MIC (E. coli NCTC 10418) [µg/mL]	MIC (K. aerogenes A) [µg/mL]	MIC (Ps. aeruginosa Dalgleish) [µg/mL]	MIC (E. coli ESS) [µg/mL]	MIC (P. rettgeri) [µg/mL]	MIC (S. faecalis I) [µg/mL]	MIC (P. mirabilis 889) [µg/mL]	MIC [1, 2] [µg/mL]	MIC [1, 3] [µg/mL]	MIC (N. catarrhalis 1502) [µg/mL]	MIC (S. pyogenes CN 10) [µg/mL]	MIC (S. marcescens US 32) [µg/mL]	MIC (S. aureus Russell) [µg/mL]	MIC (E. cloacae N1) [µg/mL]	MIC (S. aureus Oxford) [µg/mL]
NS(=O)(=O)c1ccc(Nc2ncc(NC(=O)N[C@@H](C(=O)N[C@@H]3C(=O)N4[C@@H](C(=O)O)CS[C@H]34)c3ccccc3)c(O)n2)cc1 [Example 3, 6β-[D,2-{2-(4-Aminosulphonylanilino)-4-hvdroxypyrimidyl-5-aminocarbonylamino}-2-phenyl]acetamidobisnor penicillanic acid, sodium salt]	> 100	0.2	5	0.5	0.2	50	0.05	1	25	> 100	5	2.5	0.05	0.2	2.5	50	1	1
NS(=O)(=O)c1ccc(Nc2ncc(NC(=O)N[C@@H](C(=O)N[C@@H]3C(=O)N4[C@@H](C(=O)O)CS[C@H]34)c3ccc(O)cc3)c(O)n2)cc1 [Example 4, 6β-[D,2-2-(4-Aminosulphonylanilino)-4-hydroxypyrimidyl-5-aminocarbonylamino}-2-(4-hydroxyphenyl)]acetamido-bisnorpenicillanic acid, sodium salt]	100	2.5	2.5	0.25	0.25	25	0.05	2.5	25	> 100	2.5	0.5	0.05	0.1	1	25	2.5	2.5
